Test results from patent EP0073711A1, “Salts of 2-oxopentane-1,5-dicarboxylic acid, their preparation and pharmaceutical preparations containing these salts” (S.A. D[…] LEBAS (Société Anonyme), priority 1981, dated 1983).

Tests used:
[1] = Solubility in water at 20°C; assay type: physicochemical; details: lithium salt
[2] = Tests on the acid lithium salt (pharmacological and therapeutic properties); details: compared with the calcium salt
[3] = system: système nerveux central de la souris; assay: Hole-board test; assay type: in vivo
Source text: (§1) Activité du sel acide de calcium de l'acide 2-oxo-1,5- pentane dioîque sur le système nerveux central de la souris.
6. Test de la planche à trous
Sur une planche percée de trous, la souris, parcourant la surface, explore les divers trous rencontrés.

rats = assay: 30-day daily treatment toxicity; assay type: in vivo; details: daily treatment 30 days, doses up to 1g par kg et par jour
Source text: Un groupe de rats a été soumis à un traitement quotidien par le sel acide de calcium de l'acide 2-oxo-1,5- pentane dioique pendant une durée de 30 jours.

[4] = system: système nerveux central de la souris; assay: Reduction of reserpine ptosis; assay type: in vivo; details: souris, 0,5g par kg à 1g par kg per os, 1 hour after administration
Source text: as §1
1. Réduction du ptosis réserpinique

patient = assay: Clinical test: corrective effects on hypoxia (chamber, 12,5% O2); assay type: in vivo, homme; details: acute dose 12g per os, hypoxia at 12,5% O2
Source text: 1. Effets correctifs du sel acide de calcium de l'acide 2-oxo 1,5-pentane dioïgue sur l'hypoxie
Le test est réalisé sur le patient après le passage de celui-ci en caisson sous une hypoxie à 12,5% d'O2.

[5] = system: système nerveux central de la souris; assay: Antagonism of the muscle-relaxant action of chlorpromazine (CPZ); assay type: in vivo
Source text: as §1
2. Antagonisme de l'action myorelaxante de la Chlorpromazine (CPZ)
La chlorpromazine induit une myorelaxation chez la souris. On constate une réduction de 37,5% pour une dose de 1g par kg et une réduction de 62,5% pour une dose de 2g par kg.

[6] = system: système nerveux central de la souris; assay: Catalepsy (prochlorpémazine-induced catatonia); assay type: in vivo; details: catalepsy test
Source text: as §1
Ce test a montré que le sel conforme à l'invention s'oppose à l'activité catatonique de la prochlorpémazine.

patients = assay: Clinical study: memory disorders, neurotic (anxiophobic) and psychasthenic states, versus placebo; assay type: in vivo, homme; details: sixty patients, 4g daily in two doses versus placebo
Source text: 2. Correction des troubles de la mémoire, des états névrotiques (anxiophobiques), et des états psychasténiques

[7] = system: système nerveux central de la souris; assay: Reduction of reserpine hypothermia; assay type: in vivo; details: doses between 0,5 and 1g par kg per os
Source text: as §1
5. Réduction de l'hypothermie réserpinique

[8] = system: système nerveux central de la souris; assay: Reduction of barbiturate narcosis; assay type: in vivo
Source text: as §1
4. Réduction de la narcose barbiturique
Les résultats de ce test se sont avérés positifs, chez la souris.

[9] = system: système nerveux central de la souris; assay: Motor activity; assay type: in vivo
Source text: as §1
Ce test a montré que l'adminitration à des souris du sel conforme à l'invention, provoque une augmentation de leur activité motrice.

[10] = system: système nerveux central de la souris; assay: Rotarod test (rotating cylinder) after chlorpromazine; assay type: in vivo; details: from the dose of 0,5g par kg
Source text: as §1
3. Test du "rotarod" (cylindre tournant)
Dans ce test, la souris tourne sur un cylindre animé d'un mouvement rotatif, perd l'équilibre et tombe après administration de chlorpromazine (CPZ).

[11] = Pharmacokinetic study with C14-labelled salt; assay type: in vivo; details: rats, C14-labelled molecule
Source text: Dans cette étude, on a administré à des rats le sel conforme à l'invention dont la molécule a été marquée au C^14 radioactif.

## sel acide de lithium de l'acide 2-oxo-1,5- pentane dioïque [sel de lithium acide]
[1]
  solubilité dans l'eau à 20°C: 5,5 % en poids
[2]
  propriétés pharmacologiques et thérapeutiques: comparables à celles du sel de calcium

## sel de calcium acide de l'acide 2-oxo-1,5- pentane dioïque
[3]; after a single treatment, méprobamate-induced decrease of exploration
  exploration (planche à trous) sous méprobamate: inhibition de la diminution d'exploration
[3]; after three days of pretreatment, versus control animals
  activité exploratrice (planche à trous): augmentation notable
rats
  anomalie dans les constantes biologiques, hématologiques et les examens histologiques de différents viscères: Aucune anomalie
[4]
  ptosis réserpinique: réduit de façon significative
patient
  effet correctif sur l'hypoxie: activateur efficace capable de contrebalancer l'effet d'une hypoxie
[5]; dose 1g par kg
  réduction (myorelaxation induite par la chlorpromazine): 37,5%
[5]; dose 2g par kg
  réduction (myorelaxation induite par la chlorpromazine): 62,5%
[6]
  activité catatonique de la prochlorpémazine: s'oppose
patients
  efficacité à l'égard des troubles de la mémoire, états névrotiques (anxiophobiques) et états psychasténiques: excellente efficacité
[7]
  réduction de l'hypothermie réserpinique: résultats positifs
[8]
  réduction de la narcose barbiturique: positifs
[9]
  activité motrice: augmentation
[10]
  antagonisme du CPZ (rotarod): antagonisme du CPZ
[11]
  passage à travers la barrière hématoencéphalique: passage de la molécule à travers la barrière hématoencéphalique
  principal métabolite d'élimination: acide glutamique
[11]; in the brain
  conversion au niveau cérébral: conversion de celle-ci en acide gamma-aminobutyrique (GABA)
